According to PubChem BioAssay (NCI):
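Protocol summary: plate cells (96-well), add compound at 5 concentrations, incubate 48 h, interpolate endpoints linearly. The concentration for 50% growth inhibition is given as GI50. Definition used: TGI = concentration required for complete inhibition of growth.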

Assays:
Test in all cases: NCI-60 cell line screen, 48 h
A549 NSCLC = tested on: A549 NSCLC
COLO 205 colon = tested on: COLO 205 colon
EKVX NSCLC = tested on: EKVX NSCLC
HS 578T breast = tested on: HS 578T breast
NCI-H23 lung = tested on: NCI-H23 lung
NCI/ADR-RES ovarian = tested on: NCI/ADR-RES ovarian
OVCAR-3 ovarian = tested on: OVCAR-3 ovarian
RXF 393 renal = tested on: RXF 393 renal
SNB-19 CNS = tested on: SNB-19 CNS
SNB-75 CNS = tested on: SNB-75 CNS

| Compound | GI50 (A549 NSCLC) [µM] | TGI (A549 NSCLC) [µM] | GI50 (COLO 205 colon) [µM] | TGI (COLO 205 colon) [µM] | GI50 (EKVX NSCLC) [µM] | TGI (EKVX NSCLC) [µM] | GI50 (HS 578T breast) [µM] | TGI (HS 578T breast) [µM] | GI50 (NCI-H23 lung) [µM] | TGI (NCI-H23 lung) [µM] | GI50 (NCI/ADR-RES ovarian) [µM] | TGI (NCI/ADR-RES ovarian) [µM] | GI50 (OVCAR-3 ovarian) [µM] | TGI (OVCAR-3 ovarian) [µM] | GI50 (RXF 393 renal) [µM] | TGI (RXF 393 renal) [µM] | GI50 (SNB-19 CNS) [µM] | TGI (SNB-19 CNS) [µM] | TGI (SNB-75 CNS) [µM] | GI50 (SNB-75 CNS) [µM] |
| --- | --- | --- | --- | --- | --- | --- | --- | --- | --- | --- | --- | --- | --- | --- | --- | --- | --- | --- | --- | --- |
| Cc1cc(S(N)(=O)=O)c(S/C(=N\NS(=O)(=O)c2ccc(Cl)cc2)c2ccc(Cl)cc2)cc1Cl | 49.1 | > 100 | 85.2 | > 100 | > 100 | > 100 | 79.7 | > 100 | 44.2 | > 100 | > 100 | > 100 | > 100 | > 100 | > 100 | > 100 | > 100 | > 100 |  |  |
| Cc1cc(Cl)ccc1N1C(=O)C(=O)C(c2nc3ccccc3s2)C(=O)C1=O |  | > 100 |  | > 100 |  | > 100 |  |  |  | > 100 |  |  |  | > 100 |  |  |  | > 100 | > 100 |  |
| O=C1NC(=NCCc2ccccc2Cl)S/C1=C\c1ccc2ncccc2c1 | 5.16 | > 25 | 3.98 | > 25 |  |  | 7.03 | > 17 | 6.06 | > 25 | 7.73 | > 25 | 5.31 | 19.8 | 4.85 | > 25 | 7.4 | > 25 | > 14.9 | 1.7 |
| CCOc1ccc(NC(=O)C2=C(C)NC(C)=C(C(=O)Nc3ccc(OCC)cc3)C2c2ccc([N+](=O)[O-])cc2)cc1 |  | > 100 |  | 53.3 |  | > 100 |  |  |  | > 100 |  |  |  | > 100 |  | > 100 |  | > 100 | > 100 |  |
| Cc1ccc(/C=C2\CCOC2=O)cc1 | > 100 | > 100 | > 100 | > 100 |  |  |  |  | > 100 | > 100 | > 100 | > 100 | > 100 | > 100 | > 100 | > 100 | > 100 | > 100 | > 100 | > 100 |
| CCOc1ccc2c(c1)/C(=C\C=C\C1CC(C)C3CC(OCC)CCC3N1CC)CC(C)N2CC (stereo not drawn) | 0.304 | 1.46 | 1.36 | 2.82 |  |  | 1.59 | 6.81 | 0.567 | 2.38 | 3.14 | > 100 | 0.915 | 2.2 | 1.17 | 2.59 | 0.512 | 1.97 | 1.92 | 0.599 |
| Cc1nc2cc(O)c(O)cc2cc1Oc1ccc(NC(=O)Nc2ccc(Cl)c(Cl)c2)cc1 | 8.99 | 26.2 | 10.3 | > 32.5 |  |  | 12.8 | > 32.5 | 6.97 | 19.6 | 8.74 | > 32.5 | 8.52 | 19.9 | 9.24 | > 32.5 | 10.1 | > 32.5 | 28.9 | 7.73 |
| O=C1C(c2ccccc2)=C(c2ccccc2)C(c2ccccc2)/C1=C1\C(=O)C(c2ccccc2)=C(c2ccccc2)C1c1ccccc1 (stereo not drawn) |  | > 100 |  | > 100 |  | > 100 |  |  |  | > 100 |  |  |  | > 100 |  | > 100 |  |  | > 100 |  |
| O=C(Nc1ccccc1Cl)c1ccc(NC2=C(Cl)C(=O)N(Cc3ccccc3)C2=O)cc1 | 60.4 | > 100 | 51.3 | > 100 | > 100 | > 100 | 32.7 | 69.3 | 19.2 | 35.7 | 86.2 | > 100 | 18.7 | 36.6 | 18.4 | 38.2 | > 100 | > 100 |  |  |
| CC(C)(C)c1cc(C(O)(C(F)(F)F)C(F)(F)F)c2c(c1)C(C(F)(F)F)(C(F)(F)F)OC(c1ccccc1)(C(C)(C)C)N2 (stereo not drawn) |  | > 100 |  | 16.1 |  | 17.5 |  |  |  | 10.3 |  |  |  | 12.4 |  | 12.3 |  | 17.7 | 15.1 |  |
| Cn1c(=O)c(Cc2ccc(F)cc2F)cc2cnc(NC3CCOCC3)nc21 | > 25 | > 25 | > 25 | > 25 |  |  | > 23.6 | > 25 | > 25 | > 25 | > 15.5 | > 25 | > 25 | > 25 | 18.5 | > 25 | 24.3 | > 25 | > 25 | > 17.5 |
| O=C(/C=C/c1ccccc1F)C(c1ccccc1)c1ccccc1 |  | 17.4 |  |  |  | 24.4 |  |  |  |  |  |  |  | 15.2 |  |  |  | 5.46 | 19.2 |  |
| CC(=O)O[C@H]1CC[C@@]2(C)C(=CC[C@@H]3C2CC[C@]2(C)Nc4oncc4CC32)C1 (stereo partly drawn) |  | 83.6 |  |  |  | > 100 |  |  |  | > 100 |  |  |  | 30.7 |  | > 100 |  |  | > 100 |  |
| O=C(OCCOCCOC(=O)c1c[nH]cc1-c1ccccc1)c1c[nH]cc1-c1ccccc1 |  | 66.4 |  | 35.6 |  | 69.9 |  |  |  | 33.7 |  |  |  | 50 |  | 35.6 |  | 69.9 | 36.7 |  |
| Cc1ccc(S(=O)(=O)N2CCCCC2CCO)cc1 (stereo not drawn) |  | > 100 |  | > 100 |  | > 100 |  |  |  | > 100 |  |  |  | > 100 |  | > 100 |  | > 100 | > 100 |  |
| CC1=C(C)C(=O)C(C(C)C2=C(C)C(=O)C(C)=C(C)C2=O)=C(C)C1=O | 51 | > 100 | 32.6 | > 100 | 32.6 | > 100 | 29.2 | > 100 | 21.6 | > 100 | 17.9 | 52 | 21 | 54 | 31.7 | 82.7 |  |  |  |  |
| C[Si](C)(C)/C(Br)=C\CCN1C(=O)CCC1O (stereo not drawn) |  | > 100 |  | > 100 |  | > 100 |  |  |  | > 100 |  |  |  | > 100 |  | > 100 |  | > 100 | > 100 |  |
| Cc1cc2c(=O)cc(-c3ccc(Cl)cc3)oc2c(C(=O)O)c1C |  | > 100 |  | > 100 |  | > 100 |  |  |  | > 100 |  |  |  | > 100 |  | > 100 |  | > 100 | > 100 |  |
